Source: patent US5922558A, “Methods and compositions for generating chemiluminescence with a peroxidase” (Lumigen, Inc., priority 1997, dated 1999)
Entries after “also recorded” stand apart in the source; their conditions may differ. Blank lines part the entries; values can stand above or below the molecule they belong to.

Tests used:
[1] = target: T1, horseradish peroxidase (HRP) (Armoracia rusticana, UniProt P00433); test: Chemiluminescent detection of HRP in solution with reagent composition (tris buffer, urea peroxide, p-phenylphenol, EDTA, Tween 20); format: biochemical
T1 sequence (P00433 31-353): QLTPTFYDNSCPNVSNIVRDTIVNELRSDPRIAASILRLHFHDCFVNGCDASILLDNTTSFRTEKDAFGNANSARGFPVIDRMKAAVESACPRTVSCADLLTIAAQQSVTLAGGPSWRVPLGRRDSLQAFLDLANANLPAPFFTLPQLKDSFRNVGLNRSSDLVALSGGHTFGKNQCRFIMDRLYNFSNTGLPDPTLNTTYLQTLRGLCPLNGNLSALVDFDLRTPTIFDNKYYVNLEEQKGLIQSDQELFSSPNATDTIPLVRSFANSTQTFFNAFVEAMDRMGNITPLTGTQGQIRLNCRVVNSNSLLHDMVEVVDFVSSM
Experimental: (§1) Reagent compositions comprising 0.055M tris buffer, pH 8.6, 0.25 mM urea peroxide, 0.05 mM p-phenylphe nol, 0.5 mM EDTA, 0.0125% Tween 20 and 3.3×10^-4 M acridan 5 were tested for production of chemiluminescence by reacting triplicate 100 μL aliquots with 10 μL of solutions of HRP in water containing between 1.4×10^-15 and 1.4×10^-19 moles of enzyme. […] The relation between chemiluminescence intensity at 15 min and amount of enzyme is depicted in FIG. 1.
as §1, with “mM p-phenylphenol,” for “mM p-phenylphe nol,”, “acridan 13” for “acridan 5”, “intensity” for “intensity at 15 min”, “FIG. 2.” for “FIG. 1.”
In the manner of Example 21, compositions containing each of compounds 1-4 and 6-12 and 14 were reacted with HRP at 25° C. Each produced easily measurable chemiluminescence discernable above the background measured in the absence of HRP.
The chemiluminescence profile of acridan phosphate 5 reacted with HRP is depicted in FIG. 3. Reaction of 100 μL of the reagent composition of Example 20 with 1.4×10^-15 mol of HRP at 25° C. caused an instant rise in light emission which achieved maximum intensity in ca. 5 min.
(§2) Reagent compositions comprising 0.01M tris buffer, pH 8.0, 0.5 mM urea peroxide, 0.1 mM p-phenylphenol, 1 mM EDTA, 0.025% Tween 20 and 5×10^-5 M acridan 37 were tested for production of chemiluminescence by reacting triplicate 100 μL aliquots with 10 μL of HRP in the range 1.4×10^-14 to 1.4×10^-19 moles. […] The relation between chemiluminescence intensity and amount of enzyme is depicted in FIG. 4.
A reagent composition (40 μL) comprising 0.01M tris buffer, pH 8.0, 0.5 mM urea peroxide, 0.1 mM p-phenylphenol, 1 mM EDTA, 0.025% Tween 20 and 5×10^-5 M acridan 38 was reacted with 1 μL of a solution containing 1.4×10^-15 moles of HRP. […] The chemiluminescence time profile is depicted in FIG. 5.
as §2, with “39” for “37”, “1.4×10^-15” for “1.4×10^-14”, “1.4×10^-20” for “1.4×10^-19”, “6.” for “4.”
A reagent composition (100 μL) comprising 0.01M tris buffer, pH 8.0, 0.5 mM urea peroxide, 0.1 mM p-phenylphenol, 1 mM EDTA, 0.025% Tween 20 and 5×10^-5 M acridan 40 was reacted with 10 μL of a solution containing 1.4×10^-15 moles of HRP.
A reagent composition (100 μL) comprising 0.01M tris buffer, pH 8.0, 0.5 mM urea peroxide, 0.1 mM p-phenylphenol, 1 mM EDTA, 0.025% Tween 20 and 5×10^-5 M acridan 50 was reacted with 2.5 μL of a solution containing 3.5×10^-16 moles of HRP. […] The chemiluminescence time profile is depicted in FIG. 7.
Reagent compositions comprising 0.055M tris buffer, pH 8.6, 0.25 mM urea peroxide, 0.05 mM p-phenylphenol, 0.5 mM EDTA, 0.0125% Tween 20, 1 mM CTAB and 6.6×10^-4 M acridan 43 were tested for production of chemiluminescence by reacting triplicate 100 μL aliquots with 10 μL of solutions of HRP containing between 1.4×10^-15 and 1.4×10^-19 moles of HRP. The relation between chemiluminescence intensity at 15 min and amount of enzyme is depicted in FIG. 8.
Reagent compositions comprising 0.055M tris buffer, pH 8.6, 0.25 mM urea peroxide, 0.05 mM p-phenylphenol, 0.5 mM EDTA, 0.0125% Tween 20, 1 mM CTAB and 6.6×10^-4 M compound 46 alone or with 50 μM DBA were tested for production of chemiluminescence by reacting a 100 μL aliquot with 3.5×10^-15 moles of HRP.

peroxidase = target: T2, peroxidase (Armoracia rusticana, UniProt P00433); test: Reaction with a peroxidase and a peroxide to produce chemiluminescence (general statements); format: biochemical; settings: with versus without CTAB
T2 construct: isoenzyme C dominant
T2 sequence (P00433 31-338): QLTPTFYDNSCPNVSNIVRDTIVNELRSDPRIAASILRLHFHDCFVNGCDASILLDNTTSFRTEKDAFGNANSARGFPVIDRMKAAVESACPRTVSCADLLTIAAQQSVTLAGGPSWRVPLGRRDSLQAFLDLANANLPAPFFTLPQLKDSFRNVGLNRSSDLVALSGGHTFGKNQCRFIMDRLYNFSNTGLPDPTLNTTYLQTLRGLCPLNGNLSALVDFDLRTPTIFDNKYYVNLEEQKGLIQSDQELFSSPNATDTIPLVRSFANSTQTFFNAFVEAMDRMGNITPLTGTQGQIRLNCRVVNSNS
Experimental: Another aspect of the present invention is the use of compounds of any of formulas I-VI in a method to produce chemiluminescence by reaction with a peroxidase. Reaction of a compound of formula I-VI with a peroxidase and a peroxide in an aqueous buffer solution produces easily detected chemiluminescence. Light intensity reaches a maximum level within minutes at room temperature when the reaction is conducted at alkaline pH. The reaction is conducted optionally in the presence of an enhancer. [drawing 15] Cationic surfactants, including quaternary ammonium salt compounds such as CTAB, are advantageous for use in increasing the level of chemiluminescence emitted when certain compounds of the present invention are reacted with a peroxidase and a peroxide.

[2] = target: T3, sheep anti-mouse-HRP conjugate (Armoracia rusticana, UniProt P00433); test: Western blot assay of β-galactosidase via an HRP-labeled antibody with chemiluminescent reagent, X-ray film; settings: for Western blot result compared with reagent containing compound 5: both PVDF and nitrocellulose membranes
T3 construct: purchased Boehringer-Mannheim
T3 sequence (P00433 31-338 limits assumed): T2 sequence (P00433 31-338)
From the text: Compositions of the present invention were used to detect and quantify a protein, β-galactosidase (β-gal) in a Western blot with an HRP-labeled antibody on a polyvinylidene difluoride (PVDF) membrane. Dilutions of β-gal containing 5000, 1000, 180, 30 and 5 pg, respectively, of protein were electrophoresed and transferred to PVDF membranes (Millipore, Bedford, Mass.). The membranes were blocked with 1% non-fat milk in T-TBS (0.05% Tween 20 in TBS; TBS is 50 mmol/L Tris-HCl, pH 7.4, 0.15 mol/L NaCl) and then reacted sequentially with a 1:1500 dilution of mouse anti-β-gal (Boehringer-Mannheim, Indianapolis) and 1:600 dilution of sheep anti-mouse-HRP conjugate (Boehringer-Mannheim). The membranes were washed in T-TBS and soaked for 3 min with a reagent comprising 0.055M tris buffer, pH 8.6 containing 0.66 mM acridan phosphate 5, 0.05 mM p-phenylphenol, 0.25 mM urea peroxide, 0.5 mM EDTA, 0.0125% Tween 20. The membranes were placed between transparent plastic sheets and exposed to X-ray film. […] The light produced led to intense emission which could be imaged for several hours.
A Western blot assay according to the procedure in the previous example was performed using nitrocellulose membrane (Schleicher & Schuell, Keene, N.H.) as the solid phase. β-Galstandards in the range of 5000-5 pg were used. The detection reagent of the previous example permitted detection to be performed over several hours.

[3] = 0.01M tris pH 8.0, 0.5 mM urea peroxide, 0.1 mM p-phenylphenol, 5×10^-5 M acridan
[4] = 0.055M tris pH 8.6, 0.25 mM urea peroxide, 0.05 mM p-phenylphenol, 3.3×10^-4 M compound, HRP 1.4×10^-15 to 1.4×10^-19 moles

production of chemiluminescence on reaction with HRP [1, 3]: Light production ensued upon mixing
time to maximum chemiluminescence intensity ([1]; 100 μL reagent, 0.01M tris pH 8.0, 5×10^-5 M acridan, 3.5×10^-16 moles HRP, 25° C.): 7 min
Compound: COC(Sc1ccccc1)=C1c2ccccc2N(C)c2ccccc21 [Compound 50]

effect of triplet energy acceptor DBA on chemiluminescence ([1]; 0.055M tris pH 8.6, 1 mM CTAB, 6.6×10^-4 M compound alone or with 50 μM DBA, 3.5×10^-15 moles HRP): enhancement of chemiluminescence
change of light intensity when CTAB was included in the reaction mixture (peroxidase): increased more than ten-fold
Compound: O=P(O)(O)OC(Sc1ccccc1)=C(c1ccccc1)c1ccccc1 [Compound 46]

production of chemiluminescence on reaction with HRP [1, 3]: Light production ensued upon mixing
time to maximum chemiluminescence intensity ([1]; 100 μL reagent, 0.01M tris pH 8.0, 5×10^-5 M acridan, 1.4×10^-15 moles HRP): 7 min
Compound: CC(=O)OC(Sc1ccccc1)=C1c2ccccc2N(C)c2ccccc21 [Compound 40]

change of light intensity when CTAB was included in the reaction mixture (peroxidase): increased more than ten-fold
Compound: CC(=C(OP(=O)(O)O)Sc1ccccc1)c1ccc2cc(O)ccc2c1 [Compound 43]

Further lines, the molecule ahead of its results:

Compound: CC(=O)OC(Oc1ccccc1)=C1c2ccccc2N(C)c2ccccc21 [Compound 39]
production of chemiluminescence on reaction with HRP [1, 3]: Light production ensued upon mixing
time to maximum chemiluminescence intensity ([1]; 100 μL reagent, 0.01M tris pH 8.0, 5×10^-5 M acridan, HRP 1.4×10^-15 to 1.4×10^-20 moles): 30 min

Compound: CN1c2ccccc2C(=C(OP(=O)(O)O)Sc2ccc3ccccc3c2)c2ccccc21 [Compound 13]
production of chemiluminescence on reaction with HRP [1, 4]: Light production ensued upon mixing
Western blot result compared with reagent containing compound 5 [2]: qualitatively the same result

Compound: CCOP(=O)(OCC)OC(Oc1ccccc1)=C1c2ccccc2N(C)c2ccccc21 [Compound 37]
production of chemiluminescence on reaction with HRP [1, 3]: Light production ensued upon mixing

Compound: CCOP(=O)(OCC)OC(Sc1ccccc1)=C1c2ccccc2N(C)c2ccccc21 [Compound 38]
production of chemiluminescence on reaction with HRP [1, 3]: Light production ensued upon mixing
time to maximum chemiluminescence intensity ([1]; 40 μL reagent, 0.01M tris pH 8.0, 5×10^-5 M acridan, 1.4×10^-15 moles HRP, 25° C.): 1 min

Compound: CN1c2ccccc2C(=C(OP(=O)(O)O)Sc2ccccc2)c2ccccc21 [Compound 5]
production of chemiluminescence on reaction with HRP [1, 4]: Light production ensued upon mixing
time to maximum chemiluminescence intensity ([1]; 100 μL reagent of Example 20 (0.055M tris pH 8.6, 3.3×10^-4 M acridan), 1.4×10^-15 mol HRP, 25° C.): ca. 5 min
duration over which emission could be imaged, Western blot, PVDF membrane ([2]; 0.66 mM compound, tris pH 8.6): several hours
detection of β-gal in Western blot, PVDF membrane ([2]; β-gal 5000, 1000, 180, 30 and 5 pg, 0.66 mM compound, 30 s exposure after 14 min): detection of β-gal; also recorded: detected

Compound: CN1c2ccccc2C(=C(OP(=O)(O)O)Sc2ccc(Cl)cc2)c2ccccc21 [Compound 12]
Western blot result compared with reagent containing compound 5 [2]: qualitatively the same result

Compound: CN1c2ccccc2C(=C(Oc2ccccc2)OP(=O)(O)O)c2ccccc21 [Compound 1]
Western blot result compared with reagent containing compound 5 [2]: qualitatively the same result
